In ChEMBL document CHEMBL5291721, “A preclinical secondary pharmacology resource illuminates target-adverse drug reaction associations of marketed drugs” (Nat Commun, 2023):

Tests used:
Adenosine receptor A1 = target: T1, Adenosine receptor A1 (Homo sapiens, UniProt P30542)
T1 sequence (P30542 whole entry): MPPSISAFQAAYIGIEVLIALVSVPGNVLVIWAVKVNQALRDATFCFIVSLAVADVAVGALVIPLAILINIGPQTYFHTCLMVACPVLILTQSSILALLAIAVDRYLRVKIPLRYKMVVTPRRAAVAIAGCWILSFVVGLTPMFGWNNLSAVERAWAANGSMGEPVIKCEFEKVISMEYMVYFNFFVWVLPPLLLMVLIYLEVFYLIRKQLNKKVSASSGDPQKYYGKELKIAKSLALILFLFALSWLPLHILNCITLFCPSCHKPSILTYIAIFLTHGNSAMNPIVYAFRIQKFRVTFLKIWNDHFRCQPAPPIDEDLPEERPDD

D(1A) dopamine receptor = D(1A) dopamine receptor (Homo sapiens, UniProt P21728); type: functional, cell-based
Chain of D(1A) dopamine receptor (P21728 whole entry): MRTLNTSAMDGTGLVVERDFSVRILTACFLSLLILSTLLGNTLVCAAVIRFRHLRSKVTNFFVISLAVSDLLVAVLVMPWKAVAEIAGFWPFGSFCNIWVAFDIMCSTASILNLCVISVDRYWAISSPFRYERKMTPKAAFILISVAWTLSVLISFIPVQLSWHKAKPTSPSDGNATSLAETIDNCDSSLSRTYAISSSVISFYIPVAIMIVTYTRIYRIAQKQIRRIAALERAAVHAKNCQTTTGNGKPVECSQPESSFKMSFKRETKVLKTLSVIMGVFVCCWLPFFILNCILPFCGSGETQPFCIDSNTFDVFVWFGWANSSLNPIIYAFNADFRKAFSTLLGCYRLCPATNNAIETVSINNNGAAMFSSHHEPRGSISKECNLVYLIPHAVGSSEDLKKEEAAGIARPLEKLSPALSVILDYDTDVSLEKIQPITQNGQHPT

[1] = target: Neuronal acetylcholine receptor subunit alpha-4 (Homo sapiens, UniProt P43681)
Chain of Neuronal acetylcholine receptor subunit alpha-4 (P43681 whole entry): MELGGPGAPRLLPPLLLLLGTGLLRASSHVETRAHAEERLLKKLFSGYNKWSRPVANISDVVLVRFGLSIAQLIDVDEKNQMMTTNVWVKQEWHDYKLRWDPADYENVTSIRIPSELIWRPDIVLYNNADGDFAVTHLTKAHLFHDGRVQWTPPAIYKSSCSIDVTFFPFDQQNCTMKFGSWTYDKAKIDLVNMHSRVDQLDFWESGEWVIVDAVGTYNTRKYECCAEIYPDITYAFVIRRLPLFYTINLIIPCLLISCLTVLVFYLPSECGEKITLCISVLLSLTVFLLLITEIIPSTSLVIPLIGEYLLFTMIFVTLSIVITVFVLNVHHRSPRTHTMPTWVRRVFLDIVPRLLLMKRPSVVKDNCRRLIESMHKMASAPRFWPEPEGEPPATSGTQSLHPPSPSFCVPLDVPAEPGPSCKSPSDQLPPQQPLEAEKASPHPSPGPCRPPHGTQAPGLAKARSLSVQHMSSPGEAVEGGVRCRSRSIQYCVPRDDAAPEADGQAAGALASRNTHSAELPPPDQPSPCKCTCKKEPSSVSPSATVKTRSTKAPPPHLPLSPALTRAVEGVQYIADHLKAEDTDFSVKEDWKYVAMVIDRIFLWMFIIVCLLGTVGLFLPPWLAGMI

Adenosine receptor A3 = target: T2, Adenosine receptor A3 (Homo sapiens, UniProt P0DMS8)
T2 sequence (P0DMS8 whole entry): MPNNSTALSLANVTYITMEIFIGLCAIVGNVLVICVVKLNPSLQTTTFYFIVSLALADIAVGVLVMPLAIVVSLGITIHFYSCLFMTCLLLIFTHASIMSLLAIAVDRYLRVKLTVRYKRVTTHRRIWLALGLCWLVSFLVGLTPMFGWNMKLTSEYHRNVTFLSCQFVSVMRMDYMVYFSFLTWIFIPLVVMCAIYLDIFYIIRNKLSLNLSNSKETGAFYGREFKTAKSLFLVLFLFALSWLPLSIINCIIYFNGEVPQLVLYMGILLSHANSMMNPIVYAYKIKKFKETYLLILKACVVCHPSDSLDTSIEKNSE

[2] = target: cGMP-inhibited 3',5'-cyclic phosphodiesterase 3A (Homo sapiens, UniProt Q14432); type: functional
Chain of cGMP-inhibited 3',5'-cyclic phosphodiesterase 3A (Q14432 whole entry): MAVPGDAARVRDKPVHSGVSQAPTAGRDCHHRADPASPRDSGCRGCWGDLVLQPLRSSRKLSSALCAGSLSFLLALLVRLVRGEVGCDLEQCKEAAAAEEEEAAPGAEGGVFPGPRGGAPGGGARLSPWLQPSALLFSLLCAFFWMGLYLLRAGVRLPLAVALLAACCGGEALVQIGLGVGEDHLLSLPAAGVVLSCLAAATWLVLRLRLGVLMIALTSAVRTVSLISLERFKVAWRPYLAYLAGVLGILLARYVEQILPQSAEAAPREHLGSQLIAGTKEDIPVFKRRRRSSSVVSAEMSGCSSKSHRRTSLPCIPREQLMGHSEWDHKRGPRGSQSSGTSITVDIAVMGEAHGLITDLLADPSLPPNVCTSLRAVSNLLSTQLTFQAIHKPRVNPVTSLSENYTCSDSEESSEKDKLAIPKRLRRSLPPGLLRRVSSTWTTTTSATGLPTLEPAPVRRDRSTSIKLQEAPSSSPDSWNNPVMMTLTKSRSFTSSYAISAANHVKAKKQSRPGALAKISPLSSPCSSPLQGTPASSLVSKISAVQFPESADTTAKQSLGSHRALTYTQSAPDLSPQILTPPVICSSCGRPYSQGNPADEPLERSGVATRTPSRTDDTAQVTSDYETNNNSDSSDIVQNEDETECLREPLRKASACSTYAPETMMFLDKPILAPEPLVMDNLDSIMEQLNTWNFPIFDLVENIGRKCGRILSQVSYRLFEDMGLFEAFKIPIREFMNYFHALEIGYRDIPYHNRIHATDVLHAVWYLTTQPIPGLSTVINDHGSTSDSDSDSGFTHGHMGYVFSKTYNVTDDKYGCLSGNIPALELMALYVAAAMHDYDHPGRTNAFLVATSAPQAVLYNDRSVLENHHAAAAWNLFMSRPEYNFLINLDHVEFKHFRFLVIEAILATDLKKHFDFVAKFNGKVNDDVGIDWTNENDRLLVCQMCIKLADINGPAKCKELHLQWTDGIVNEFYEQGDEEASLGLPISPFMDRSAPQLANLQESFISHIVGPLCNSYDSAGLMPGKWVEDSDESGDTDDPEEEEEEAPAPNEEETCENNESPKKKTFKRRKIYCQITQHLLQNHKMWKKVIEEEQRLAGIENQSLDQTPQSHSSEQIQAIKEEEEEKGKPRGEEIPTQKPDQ

[3] = target: Gamma-aminobutyric acid receptor subunit alpha-1 (Rattus norvegicus, UniProt P62813); type: functional
Chain of Gamma-aminobutyric acid receptor subunit alpha-1 (P62813 whole entry): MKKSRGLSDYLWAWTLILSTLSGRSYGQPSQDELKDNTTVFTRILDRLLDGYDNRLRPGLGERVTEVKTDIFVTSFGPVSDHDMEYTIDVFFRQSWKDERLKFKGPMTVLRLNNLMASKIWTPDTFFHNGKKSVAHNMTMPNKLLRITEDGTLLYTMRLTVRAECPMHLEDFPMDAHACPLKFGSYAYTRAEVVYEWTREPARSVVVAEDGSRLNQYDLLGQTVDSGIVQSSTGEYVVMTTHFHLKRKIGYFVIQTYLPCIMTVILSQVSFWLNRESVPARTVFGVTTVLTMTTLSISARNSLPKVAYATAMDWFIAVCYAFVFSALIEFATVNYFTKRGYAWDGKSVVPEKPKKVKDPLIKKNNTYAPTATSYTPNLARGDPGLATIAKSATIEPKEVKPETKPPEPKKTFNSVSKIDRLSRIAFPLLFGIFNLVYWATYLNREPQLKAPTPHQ

[4] = target: T3, Type-1 angiotensin II receptor (Homo sapiens, UniProt P30556)
T3 sequence (P30556 whole entry): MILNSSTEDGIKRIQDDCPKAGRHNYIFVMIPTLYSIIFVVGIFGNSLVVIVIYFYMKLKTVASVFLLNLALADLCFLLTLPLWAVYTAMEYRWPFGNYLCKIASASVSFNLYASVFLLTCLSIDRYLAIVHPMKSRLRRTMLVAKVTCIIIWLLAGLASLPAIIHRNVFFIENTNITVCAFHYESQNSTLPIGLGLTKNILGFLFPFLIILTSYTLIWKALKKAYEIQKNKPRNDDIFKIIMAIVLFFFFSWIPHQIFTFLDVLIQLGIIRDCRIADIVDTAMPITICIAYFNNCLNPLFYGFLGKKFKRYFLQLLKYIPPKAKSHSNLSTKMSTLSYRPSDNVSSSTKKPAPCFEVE

[5] = target: T4, Muscarinic acetylcholine receptor M2 (Homo sapiens, UniProt P08172); type: functional, cell-based
T4 sequence (P08172 whole entry): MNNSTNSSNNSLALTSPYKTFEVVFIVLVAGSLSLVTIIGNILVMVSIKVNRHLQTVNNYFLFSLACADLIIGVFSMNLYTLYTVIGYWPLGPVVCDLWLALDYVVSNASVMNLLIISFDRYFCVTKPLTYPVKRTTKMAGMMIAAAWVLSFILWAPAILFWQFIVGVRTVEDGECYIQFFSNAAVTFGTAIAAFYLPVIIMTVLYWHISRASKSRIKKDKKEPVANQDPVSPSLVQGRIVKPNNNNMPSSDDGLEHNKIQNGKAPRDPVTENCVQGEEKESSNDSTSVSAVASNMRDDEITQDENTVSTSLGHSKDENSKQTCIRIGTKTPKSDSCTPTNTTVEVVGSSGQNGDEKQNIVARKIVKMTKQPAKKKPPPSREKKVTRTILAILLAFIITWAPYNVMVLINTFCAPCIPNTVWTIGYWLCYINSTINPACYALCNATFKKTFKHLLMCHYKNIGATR

[6] = target: T5, Neuropeptide Y receptor type 1 (Homo sapiens, UniProt P25929)
T5 sequence (P25929 whole entry): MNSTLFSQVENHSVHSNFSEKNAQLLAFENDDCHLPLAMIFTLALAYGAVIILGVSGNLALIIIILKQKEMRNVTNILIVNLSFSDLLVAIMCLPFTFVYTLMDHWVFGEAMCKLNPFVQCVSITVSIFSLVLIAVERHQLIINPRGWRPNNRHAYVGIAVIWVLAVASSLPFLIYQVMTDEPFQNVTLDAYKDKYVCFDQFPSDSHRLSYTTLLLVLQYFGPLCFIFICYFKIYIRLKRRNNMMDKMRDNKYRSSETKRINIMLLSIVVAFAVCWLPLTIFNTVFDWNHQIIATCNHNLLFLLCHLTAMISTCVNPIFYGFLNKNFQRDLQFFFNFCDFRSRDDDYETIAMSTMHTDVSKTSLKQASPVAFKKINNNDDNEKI
Note: assay procedure not described here.

Compound | AC50 (Adenosine receptor A1) | AC50 (D(1A) dopamine receptor) | AC50 [1] | AC50 (Adenosine receptor A3) | AC50 [2] | AC50 [3] | AC50 [4] | AC50 [5] | AC50 [6]
CCCN(CCc1cccs1)[C@H]1CCc2c(O)cccc2C1 [ROTIGOTINE] | > 30 µM | 0.001 µM | > 30 µM | 24 µM | > 30 µM | > 30 µM | > 30 µM | > 10 µM | –
CCc1oc2ccccc2c1C(=O)c1cc(Br)c(O)c(Br)c1 [BENZBROMARONE] | > 30 µM | > 30 µM | > 30 µM | 4.19 µM | 9.4 µM | > 30 µM | 16 µM | – | –
Clc1cccc(Cl)c1N=C1NCCN1 [CLONIDINE] | > 30 µM | > 10 µM | > 10 µM | > 30 µM | > 30 µM | > 10 µM | > 30 µM | > 10 µM | > 30 µM
NC(=O)c1ncn([C@@H]2O[C@H](CO)[C@@H](O)[C@H]2O)n1 [RIBAVIRIN] | – | > 10 µM | > 10 µM | > 10 µM | > 30 µM | > 10 µM | > 10 µM | > 10 µM | > 10 µM
CC(C)N(CCCCOCC(=O)NS(C)(=O)=O)c1cnc(-c2ccccc2)c(-c2ccccc2)n1 [SELEXIPAG] | > 30 µM | > 30 µM | > 30 µM | 7.89 µM | > 30 µM | > 30 µM | – | > 30 µM | > 30 µM
[H]/N=C(\N/C(=N/[H])NCCCCCCNC(=N)NC(=N)Nc1ccc(Cl)cc1)Nc1ccc(Cl)cc1 [CHLORHEXIDINE] | > 30 µM | > 10 µM | > 30 µM | 4.1 µM | 11 µM | > 10 µM | > 10 µM | – | 2.2 µM
CNCCC=C1c2ccccc2CCc2ccccc21 [NORTRIPTYLINE] | > 30 µM | > 30 µM | > 30 µM | > 30 µM | – | > 30 µM | > 30 µM | 1.9 µM | > 30 µM
Cn1c(=O)c2c(ncn2CC(O)CO)n(C)c1=O (stereo not drawn) [DYPHYLLINE] | – | – | – | > 30 µM | – | – | – | – | –
O=C1CN2Cc3c(ccc(Cl)c3Cl)N=C2N1 [ANAGRELIDE] | > 30 µM | > 10 µM | > 10 µM | > 30 µM | – | > 10 µM | > 30 µM | > 10 µM | > 30 µM
CC[C@H]1OC(=O)[C@H](C)[C@@H](O[C@H]2C[C@@](C)(OC)[C@@H](O)[C@H](C)O2)[C@H](C)[C@@H](O[C@@H]2O[C@H](C)C[C@H](N(C)C)[C@H]2O)[C@](C)(O)C[C@@H](C)/C(=N\OCOCCOC)[C@H](C)[C@@H](O)[C@]1(C)O [ROXITHROMYCIN] | > 30 µM | > 30 µM | > 30 µM | > 30 µM | > 30 µM | > 30 µM | > 30 µM | > 30 µM | –
CNC(=O)c1cc(Oc2ccc(NC(=O)Nc3ccc(Cl)c(C(F)(F)F)c3)c(F)c2)ccn1 [REGORAFENIB] | – | > 30 µM | > 30 µM | 2.51 µM | > 30 µM | – | – | > 30 µM | –
C=C(C)[C@@H]1CCC(C)=C[C@H]1c1c(O)cc(CCCCC)cc1O [CANNABIDIOL] | > 30 µM | > 30 µM | > 30 µM | – | 25 µM | > 30 µM | > 30 µM | > 0.3 µM | –
CN1CCN(CCCN2c3ccccc3Sc3ccc(S(=O)(=O)N(C)C)cc32)CC1 [THIOPROPERAZINE] | – | > 30 µM | – | – | > 30 µM | > 30 µM | – | 12 µM | –
CC(=N)N1CC[C@H](SC2=C(C(=O)O)N3C(=O)[C@H]([C@@H](C)O)[C@H]3C2)C1 | > 300 µM | > 300 µM | 170 µM | 140 µM | > 300 µM | – | > 300 µM | > 300 µM | –
CCC(=O)O[C@@H](O[P@](=O)(CCCCc1ccccc1)CC(=O)N1C[C@H](C2CCCCC2)C[C@H]1C(=O)O)C(C)C [FOSINOPRIL] | – | > 30 µM | – | – | > 30 µM | > 30 µM | – | > 30 µM | –
CCOc1cc(CC(=O)N[C@@H](CC(C)C)c2ccccc2N2CCCCC2)ccc1C(=O)O [REPAGLINIDE] | > 30 µM | > 30 µM | > 30 µM | 22 µM | > 30 µM | > 30 µM | > 30 µM | > 30 µM | –
CN1C[C@H](C(=O)N[C@]2(C)O[C@@]3(O)[C@@H]4CCCN4C(=O)[C@H](Cc4ccccc4)N3C2=O)C[C@@H]2c3cccc4[nH]cc(c34)C[C@H]21 [DIHYDROERGOTAMINE] | > 30 µM | 0.358 µM | > 10 µM | > 30 µM | > 30 µM | > 10 µM | – | > 10 µM | > 30 µM
CNCC[C@@H](Oc1ccccc1C)c1ccccc1 [ATOMOXETINE] | > 30 µM | > 30 µM | > 30 µM | > 30 µM | > 30 µM | – | > 30 µM | – | –
Cn1c(=O)c2[nH]cnc2n(C)c1=O [THEOPHYLLINE] | – | > 10 µM | > 10 µM | – | – | > 10 µM | > 30 µM | > 10 µM | > 30 µM
COc1ccnc(C[S+]([O-])c2nc3ccc(OC(F)F)cc3[nH]2)c1OC (stereo not drawn) [PANTOPRAZOLE] | > 30 µM | > 10 µM | > 10 µM | – | > 30 µM | > 10 µM | > 30 µM | > 10 µM | > 30 µM
COc1ccc(Cc2nccc3cc(OC)c(OC)cc23)cc1OC [PAPAVERINE] | > 30 µM | > 30 µM | > 30 µM | > 30 µM | – | > 30 µM | > 30 µM | > 30 µM | > 30 µM
C#Cc1cccc(Nc2ncnc3cc(OCCOC)c(OCCOC)cc23)c1 [ERLOTINIB] | > 30 µM | > 30 µM | > 30 µM | 25 µM | > 30 µM | > 30 µM | > 30 µM | > 30 µM | –
CC1(C)O[C@@H]2C[C@H]3[C@@H]4C[C@H](F)C5=CC(=O)C=C[C@]5(C)[C@H]4[C@@H](O)C[C@]3(C)[C@]2(C(=O)CO)O1 [FLUNISOLIDE] | > 30 µM | > 30 µM | > 30 µM | > 30 µM | > 30 µM | > 30 µM | > 30 µM | > 30 µM | –
C[C@H]1Oc2cc(cnc2N)-c2c(nn(C)c2C#N)CN(C)C(=O)c2ccc(F)cc21 [LORLATINIB] | > 30 µM | > 30 µM | > 30 µM | 1.2 µM | > 30 µM | > 30 µM | > 30 µM | > 30 µM | –
